pIC50: −log10 of the molar value.
Each compound was assayed against T1, viral kinase pUL-97 (Human cytomegalovirus, UniProt P16788) (assay: UL97 kinase assay on Immobilon plate). Conditions: inhibition of UL 97 kinase activity; class by IC50 / % inhibition at 10 μM or 100 μM; read-out: Activity Class [A, B, C].
T1 construct: The pUL-97 gene was cloned into a baculovirus vector; GST (glutathione S-transferase) (N); made in house; host or cells: Sf9 insect cells, baculovirus
Assay type: biochemical
Procedure, shortened: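 Compound was titrated into a radiometric reaction of Sf9-expressed GST-UL97 kinase, incubated 1 h at 30 °C in Tris-HCl pH 7.5/MnCl2/DTT buffer before EDTA stop. MBP substrate and ATP (3 μM in the added assay buffer) were supplied with γ-[33P]ATP. Labelled product bound to Immobilon filter was washed and counted by scintillation.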

T1 sequence (P16788 whole entry): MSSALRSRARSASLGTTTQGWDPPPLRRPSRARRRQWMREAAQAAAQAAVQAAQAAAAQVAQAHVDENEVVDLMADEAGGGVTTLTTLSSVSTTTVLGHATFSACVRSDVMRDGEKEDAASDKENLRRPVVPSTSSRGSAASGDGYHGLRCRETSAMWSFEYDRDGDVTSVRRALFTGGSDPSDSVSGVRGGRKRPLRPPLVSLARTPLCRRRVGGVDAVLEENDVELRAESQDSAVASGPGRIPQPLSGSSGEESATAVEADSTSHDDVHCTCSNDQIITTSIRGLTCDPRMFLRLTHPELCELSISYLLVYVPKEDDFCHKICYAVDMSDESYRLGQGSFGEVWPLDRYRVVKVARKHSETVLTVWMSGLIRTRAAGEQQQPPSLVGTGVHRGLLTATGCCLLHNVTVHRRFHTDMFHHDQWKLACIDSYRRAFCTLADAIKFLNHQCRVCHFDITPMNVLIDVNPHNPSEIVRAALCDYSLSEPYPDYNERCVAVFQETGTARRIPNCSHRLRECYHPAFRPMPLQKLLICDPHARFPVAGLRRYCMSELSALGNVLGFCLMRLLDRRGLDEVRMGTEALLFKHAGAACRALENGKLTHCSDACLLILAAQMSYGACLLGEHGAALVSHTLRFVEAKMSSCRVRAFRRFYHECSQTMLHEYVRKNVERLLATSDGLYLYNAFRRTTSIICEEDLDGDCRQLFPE

Row | pIC50 | Compound
1 | 5.00 to 6.00 | c1ccc(N2CCN(c3cncc(-c4csc5ccccc45)n3)CC2)cc1 [compound 247, 6′-Benzo[b]thiophen-3-yl-4-phenyl-3,4,5,6-tetrahydro-2H-[1,2′]bipyrazinyl]
2 | > 6.00 | Brc1ccc(-c2cncc(N3CCN(c4cnccn4)CC3)n2)cc1 [compound 313, 6-(4-Bromo-phenyl)-2′,3′,5′,6′-tetrahydro-[2,1′;4′,2″]terpyrazine]
3 | 5.00 to 6.00 | c1ccc(C2CCN(c3cncc(-c4ccc5ccccc5c4)n3)CC2)cc1 [compound 337, 2-Naphthalen-2-yl-6-(4-phenyl-piperidin-1-yl)-pyrazine]
4 | 5.00 to 6.00 | Fc1ccc(N2CCN(c3cncc(-c4ccoc4)n3)CC2)c(F)c1 [compound 201, 4-(2,4-Difluoro-phenyl)-6′-furan-3-yl-3,4,5,6-tetrahydro-2H-[1,2′]bipyrazinyl]
5 | 4.00 to 5.00 | CC(=O)c1ccc(N2CCN(c3cncc(-c4cccc(F)c4)n3)CC2)cc1 [compound 214, 1-{4-[6′-(3-Fluoro-phenyl)-2,3,5,6-tetrahydro-[1,2′]bipyrazinyl-4-yl]-phenyl}-ethanone]
6 | 4.00 to 5.00 | Cc1cccc(N2CCN(c3cncc(-c4ccoc4)n3)CC2)c1C [compound 346, 4-(2,3-Dimethyl-phenyl)-6′-furan-3-yl-3,4,5,6-tetrahydro-2H-[1,2′]bipyrazinyl]
7 | 4.00 to 5.00 | Fc1ccc(-c2cncc(N3CCN(c4cccc(Cl)c4)CC3)n2)cc1Cl [compound 238, 6′-(3-Chloro-4-fluoro-phenyl)-4-(3-chloro-phenyl)-3,4,5,6-tetrahydro-2H-[1,2′]bipyrazinyl]
8 | 4.00 to 5.00 | Cc1cccc(-c2cncc(N3CCN(c4ccccn4)CC3)n2)c1 [compound 327, 4-Pyridin-2-yl-6′-m-tolyl-3,4,5,6-tetrahydro-2H-[1,2′]bipyrazinyl]
9 | 4.00 to 5.00 | Cc1ccccc1-c1cncc(N2CCN(c3ccncc3)CC2)n1 [compound 256, 4-Pyridin-4-yl-6′-o-tolyl-3,4,5,6-tetrahydro-2H-[1,2′]bipyrazinyl]
10 | 4.00 to 5.00 | CCOc1ccc(-c2cncc(N3CCN(c4ccc(F)cc4F)CC3)n2)cc1 [compound 203, 4-(2,4-Difluoro-phenyl)-6′-(4-ethoxy-phenyl)-3,4,5,6-tetrahydro-2H-[1,2′]bipyrazinyl]
11 | 5.00 to 6.00 | CC(=O)c1ccc(N2CCN(c3cncc(-c4ccoc4)n3)CC2)cc1 [compound 205, 1-[4-(6′-Furan-3-yl-2,3,5,6-tetrahydro-[1,2′]bipyrazinyl-4-yl)-phenyl]-ethanone]
12 | 4.00 to 5.00 | CC(=O)c1ccc(N2CCN(c3cncc(-c4ccc(C(C)(C)C)cc4)n3)CC2)cc1 [compound 204, 1-{4-[6′-(4-tert-Butyl-phenyl)-2,3,5,6-tetrahydro-[1,2′]bipyrazinyl-4-yl]-phenyl}-ethanone]
13 | 5.00 to 6.00 | Fc1ccc(N2CCN(c3cncc(-c4cc5ccccc5s4)n3)CC2)c(F)c1 [compound 272, 6′-Benzo[b]thiophen-2-yl-4-(2,4-difluoro-phenyl)-3,4,5,6-tetrahydro-2H-[1,2′]bipyrazinyl]
14 | 4.00 to 5.00 | Fc1ccc(-c2cncc(N3CCN(c4ccc(Cl)c(Cl)c4)CC3)n2)cc1 [compound 370]
15 | 5.00 to 6.00 | Cc1ccc(-c2cncc(N3CCN(c4ccccc4)CC3)n2)cc1 [compound 245, 4-Phenyl-6′-p-tolyl-3,4,5,6-tetrahydro-2H-[1,2′]bipyrazinyl]
16 | 5.00 to 6.00 | CC(=O)c1cccc(-c2cncc(N3CCN(c4cnccn4)CC3)n2)c1 [compound 312, 1-[3-(2′,3′,5′,6′-Tetrahydro-[2,1′;4′,2″]terpyrazin-6-yl)-phenyl]-ethanone]
17 | 5.00 to 6.00 | N#Cc1ccc(-c2cncc(N3CCN(c4ccccn4)CC3)n2)cc1 [compound 303, 4-(4-Pyridin-2-yl-3,4,5,6-tetrahydro-2H-[1,2′]bipyrazinyl-6′-yl)-benzonitrile]
18 | 5.00 to 6.00 | Clc1ccc(N2CCN(c3cncc(-c4csc5ccccc45)n3)CC2)cc1 [compound 326, 6′-Benzo[b]thiophen-3-yl-4-(4-chloro-phenyl)-3,4,5,6-tetrahydro-2H-[1,2′]bipyrazinyl]
19 | 5.00 to 6.00 | FC(F)(F)c1ccc(-c2cncc(N3CCN(c4cnccn4)CC3)n2)cc1 [compound 345, 6-(4-Trifluoromethyl-phenyl)-2′,3′,5′,6′-tetrahydro-[2,1′;4′,2″]terpyrazine]
20 | 5.00 to 6.00 | CSc1ccc(-c2cncc(N3CCN(c4ccc(C(F)(F)F)cc4)CC3)n2)cc1 [compound 311, 6′-(4-Methylsulfanyl-phenyl)-4-(4-trifluoromethyl-phenyl)-3,4,5,6-tetrahydro-2H-[1,2′]bipyrazinyl]
21 | 5.00 to 6.00 | CC(=O)c1cccc(-c2cncc(N3CCN(c4ccccn4)CC3)n2)c1 [compound 307, 1-[3-(4-Pyridin-2-yl-3,4,5,6-tetrahydro-2H-[1,2′]bipyrazinyl-6′-yl)-phenyl]-ethanone]
22 | 5.00 to 6.00 | OCc1ccc(-c2cncc(N3CCN(c4ccc(F)cc4)CC3)n2)cc1 [compound 269, {4-[4-(4-Fluoro-phenyl)-3,4,5,6-tetrahydro-2H-[1,2′]bipyrazinyl-6′-yl]-phenyl}-methanol]
23 | 4.00 to 5.00 | Cc1cccc(-c2cncc(N3CCN(c4ccccc4F)CC3)n2)c1C [compound 250, 6′-(2,3-Dimethyl-phenyl)-4-(2-fluoro-phenyl)-3,4,5,6-tetrahydro-2H-[1,2′]bipyrazinyl]
24 | 4.00 to 5.00 | COc1ccc(N2CCN(c3cncc(-c4ccccc4CO)n3)CC2)cc1OC [compound 264, {2-[4-(3,4-Dimethoxy-phenyl)-3,4,5,6-tetrahydro-2H-[1,2′]bipyrazinyl-6′-yl]-phenyl}-methanol]

Same assay, conditions: inhibition of UL 97 kinase activity; class by IC50 / % inhibition at 10 or 100 μM; read-out: Activity Class [A, B, C]

Row | pIC50 | Compound
25 | > 6.00 | c1ccc2sc(-c3cncc(N4CCN(c5ccncc5)CC4)n3)cc2c1 [compound 69, 6′-Benzo[b]thiophen-2-yl-4-pyridin-4-yl-3,4,5,6-tetrahydro-2H-[1,2′]bipyrazinyl]
26 | 4.00 to 5.00 | COc1ccc(OC)c(-c2cncc(N3CCN(c4ccc(F)cc4F)CC3)n2)c1 [compound 144, 4-(2,4-Difluoro-phenyl)-6′-(2,5-dimethoxy-phenyl)-3,4,5,6-tetrahydro-2H-[1,2′]bipyrazinyl]
27 | 5.00 to 6.00 | Fc1ccccc1N1CCN(c2cncc(-c3ccc4ccccc4c3)n2)CC1 [compound 123, 4-(2-Fluoro-phenyl)-6′-naphthalen-2-yl-3,4,5,6-tetrahydro-2H-[1,2′]bipyrazinyl]
28 | 5.00 to 6.00 | Clc1ccc(-c2cncc(N3CCN(c4ccncc4)CC3)n2)cc1 [compound 47, 6′-(4-Chloro-phenyl)-4-pyridin-4-yl-3,4,5,6-tetrahydro-2H-[1,2′]bipyrazinyl]
29 | 4.00 to 5.00 | COc1cc(-c2cncc(N3CCN(c4cccc5[nH]ccc45)CC3)n2)cc(OC)c1OC [compound 37, 4-(1H-Indol-4-yl)-6′-(3,4,5-trimethoxy-phenyl)-3,4,5,6-tetrahydro-2H-[1,2′]bipyrazinyl]
30 | 4.00 to 5.00 | Cc1ccc(N2CCN(c3cncc(-c4ccc(N(C)C)cc4)n3)CC2)cc1 [compound 176, Dimethyl-[4-(4-p-tolyl-3,4,5,6-tetrahydro-2H-[1,2′]bipyrazinyl-6′-yl)-phenyl]-amine]
31 | 5.00 to 6.00 | COc1ccc(N2CCN(c3cncc(-c4ccc(C(F)(F)F)cc4)n3)CC2)cc1OC [compound 172, 4-(3,4-Dimethoxy-phenyl)-6′-(4-trifluoromethyl-phenyl)-3,4,5,6-tetrahydro-2H-[1,2′]bipyrazinyl]
32 | 5.00 to 6.00 | COc1ccc2cc(-c3cncc(N4CCN(c5ccc(OC)c(OC)c5)CC4)n3)ccc2c1 [compound 169, 4-(3,4-Dimethoxy-phenyl)-6′-(6-methoxy-naphthalen-2-yl)-3,4,5,6-tetrahydro-2H-[1,2′]bipyrazinyl]
33 | > 6.00 | NC(=O)c1ccc(-c2cncc(N3CCN(c4ccncc4)CC3)n2)cc1 [Comp. 21, 4-(4-Pyridin-4-yl-3,4,5,6-tetrahydro-2H-[1,2′]bipyrazinyl-6′-yl)-benzamide]
34 | 5.00 to 6.00 | Cc1ccc(N2CCN(c3cncc(-c4ccc(F)cc4)n3)CC2)cc1 [compound 136, 6′-(4-Fluoro-phenyl)-4-p-tolyl-3,4,5,6-tetrahydro-2H-[1,2′]bipyrazinyl]
35 | 4.00 to 5.00 | CN(C)c1cccc(-c2cncc(N3CCN(c4ccncc4)CC3)n2)c1 [compound 16, Dimethyl-[3-(4-pyridin-4-yl-3,4,5,6-tetrahydro-2H-[1,2′]bipyrazinyl-6′-yl)-phenyl]-amine]
36 | 4.00 to 5.00 | Cc1ccc(N2CCN(c3cncc(-c4ccccc4)n3)CC2)cc1 [compound 135, 6′-Phenyl-4-p-tolyl-3,4,5,6-tetrahydro-2H-[1,2′]bipyrazinyl]
37 | 4.00 to 5.00 | Fc1ccc(N2CCN(c3cncc(-c4ccc(F)c(Cl)c4)n3)CC2)c(F)c1 [compound 145, 6′-(3-Chloro-4-fluoro-phenyl)-4-(2,4-difluoro-phenyl)-3,4,5,6-tetrahydro-2H-[1,2′]bipyrazinyl]
38 | 4.00 to 5.00 | c1ccc(N2CCN(c3cncc(-c4cccs4)n3)CC2)nc1 [compound 31, 4-Pyridin-2-yl-6′-thiophen-2-yl-3,4,5,6-tetrahydro-2H-[1,2′]bipyrazinyl]
39 | 5.00 to 6.00 | CC(=O)c1ccc(-c2cncc(N3CCN(c4ccncc4)CC3)n2)cc1 [compound 133, 1-[4-(4-Pyridin-4-yl-3,4,5,6-tetrahydro-2H-[1,2′]bipyrazinyl-6′-yl)-phenyl]-ethanone]
40 | 5.00 to 6.00 | CN(C)c1ccc(-c2cncc(N3CCN(c4ccccc4F)CC3)n2)cc1 [compound 195, {4-[4-(2-Fluoro-phenyl)-3,4,5,6-tetrahydro-2H-[1,2′]bipyrazinyl-6′-yl]-phenyl}-dimethyl-amine]
41 | 4.00 to 5.00 | COc1ccc(Cl)cc1-c1cncc(N2CCN(c3ccccc3)CC2)n1 [compound 119, 6′-(5-Chloro-2-methoxy-phenyl)-4-phenyl-3,4,5,6-tetrahydro-2H-[1,2′]bipyrazinyl]

From patent US20080194574A1, “Pyrazine Derivatives As Effective Compounds Against Infectious Diseases” (AXXIMA PHARMACEUTICALS AG, priority 2003, published 2008)
